This is an account of results in patent US10189854B2, “Substituted pyrimidine compounds” (Grünenthal GmbH, priority 2014, dated 2019).

Counter-ions that a name gives are not always drawn.

Sequence of human PDE4B1 (Q07343 whole entry): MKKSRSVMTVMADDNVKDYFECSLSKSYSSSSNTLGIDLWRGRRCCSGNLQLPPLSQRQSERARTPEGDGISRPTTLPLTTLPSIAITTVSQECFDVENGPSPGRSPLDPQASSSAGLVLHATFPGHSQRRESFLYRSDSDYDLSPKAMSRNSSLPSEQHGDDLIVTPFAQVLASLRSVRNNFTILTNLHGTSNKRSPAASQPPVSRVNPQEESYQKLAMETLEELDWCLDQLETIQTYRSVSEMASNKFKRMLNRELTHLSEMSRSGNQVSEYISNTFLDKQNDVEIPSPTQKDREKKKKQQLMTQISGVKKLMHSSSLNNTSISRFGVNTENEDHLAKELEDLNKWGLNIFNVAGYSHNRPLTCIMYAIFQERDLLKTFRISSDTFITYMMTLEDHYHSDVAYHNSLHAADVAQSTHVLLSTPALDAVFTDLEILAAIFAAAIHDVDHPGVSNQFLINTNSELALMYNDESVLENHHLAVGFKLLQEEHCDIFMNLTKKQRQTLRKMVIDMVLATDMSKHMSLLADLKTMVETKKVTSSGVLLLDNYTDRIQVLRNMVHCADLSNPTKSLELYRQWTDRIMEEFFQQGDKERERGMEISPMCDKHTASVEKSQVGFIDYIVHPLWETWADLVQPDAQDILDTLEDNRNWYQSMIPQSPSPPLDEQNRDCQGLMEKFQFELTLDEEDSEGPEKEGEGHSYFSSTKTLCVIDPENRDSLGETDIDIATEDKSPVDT

This assay concerns the target human PDE4B1 (Homo sapiens (Human), UniProt Q07343). The experiment in a line: TR-FRET assay using the LANCE Ultra cAMP kit to determine the activity of hPDE4B1. Format: biochemical. To be noted: IC50 inhibition of PDE4B, mean. In a few lines: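 Recombinant human PDE4B1 (Sf9-expressed, 0.96 U) incubated with compound and 500 nM cAMP in 50 mM Tris-HCl, 50 mM MgCl2, 5 mM DTT, pH 8.5, 30 min at room temperature. Residual cAMP read by TR-FRET (665/620 nm ratio) after IBMX stop. IC50 from ten-concentration curves as % inhibition of control.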
Background: In TR-FRET formats the signal depends on donor and acceptor labels being close together.
The term IC50 denotes the point on the concentration scale where inhibition reaches its midpoint. A low value points to higher potency. Consider `CN(CC(N)=O)C(=O)c1ccc2c(c1)N(c1ncc(-c3ccccc3F)cn1)CC21CC1` [Compound 256, N-(Carbamoyl-methyl)-1-[5-(2-fluorophenyl)-pyrimidin-2-yl]-N-methyl-spiro[1,2-dihydro-indole-3,1′-cyclopropane]-6-carboxylic acid amide], for which the 50% inhibitory concentration (IC50) is < 0.1 µM.
For `Cc1cc(C)nc(-c2cnc(N3CC4(CC4)c4ccc(C(=O)N(C)CCO)cc43)nc2)c1` [Compound 260, 1-[5-(4,6-Dimethyl-pyridin-2-yl)-pyrimidin-2-yl]-N-(2-hydroxy-ethyl)-N-methyl-spiro[1,2-dihydro-indole-3,1′-cyclopropane]-6-carboxylic acid amide] the value was < 0.1 µM; for `Cc1ccnc(-c2cnc(N3CC4(CC4)c4ccc(C(=O)N(C)CC(N)=O)cc43)nc2)c1` [Compound 300, N-(Carbamoyl-methyl)-N-methyl-1-[5-(4-methyl-pyridin-2-yl)-pyrimidin-2-yl]-spiro[1,2-dihydro-indole-3,1′-cyclopropane]-6-carboxylic acid amide], < 0.1 µM.
For the compound `O=C(c1ccc2c(c1)N(c1ncc(-c3ccccc3F)cn1)CC21CC1)N(CCO)C1CC1` [Compound 278, N-Cyclopropyl-1-[5-(2-fluorophenyl)-pyrimidin-2-yl]-N-(2-hydroxy-ethyl]-spiro[1,2-dihydro-indole-3,1′-cyclopropane]-6-carboxylic acid amide], the IC50 was < 0.1 µM.
As to `Cc1ccnc(-c2cnc(N3CC4(CC4)c4ccc(C(=O)N5C[C@@H]6C[C@H]5CN6)cc43)nc2)c1` [Compound 297, [(1S,4S)-2,5-Diazabicyclo[2.2.1]heptan-2-yl]-[1-[5-(4-methyl-pyridin-2-yl)-pyrimidin-2-yl]-spiro[1,2-dihydro-indole-3,1′-cyclopropane]-6-yl]-methanone], the 50% inhibitory concentration (IC50) was < 0.1 µM.
For `CN(CCO)C(=O)c1ccc2c(c1)N(c1ncc(-c3cc(N4CCCC4)ccc3F)cn1)CC21CC1` [Compound 359, 1-[5-(2-Fluoro-5-pyrrolidin-1-yl-phenyl)-pyrimidin-2-yl]-N-(2-hydroxy-ethyl)-N-methyl-spiro[1,2-dihydro-indole-3,1′-cyclopropane]-6-carboxylic acid amide] the value was < 0.1 µM; for `Cc1cccc(-c2cnc(N3CC4(CC4)c4ccc(C(=O)N5C[C@@H]6C[C@H]5CN6)cc43)nc2)n1` [Compound 305, [(1S,4S)-2,5-Diazabicyclo[2.2.1]heptan-2-yl]-[1-[5-(6-methyl-pyridin-2-yl)-pyrimidin-2-yl]-spiro[1,2-dihydro-indole-3,1′-cyclopropane]-6-yl]-methanone], < 0.1 µM.
With `CN(CCO)C(=O)c1ccc2c(c1)N(c1ncc(-c3cccc(C4CC4)n3)cn1)CC21CC1` [Compound 269, 1-[5-(6-Cyclopropyl-pyridin-2-yl)-pyrimidin-2-yl]-N-(2-hydroxy-ethyl)-N-methyl-spiro[1,2-dihydro-indole-3,1′-cyclopropane]-6-carboxylic acid amide], the IC50 was < 0.1 µM.
`O=C(c1ccc2c(c1)N(c1ncc(-c3cccnn3)cn1)CC21CC1)N1CC2CC1CN2` (centres unmarked) [Compound 274, (2,5-Diazabicyclo[2.2.1]heptan-2-yl)-[1-(5-pyridazin-3-yl-pyrimidin-2-yl)-spiro[1,2-dihydro-indole-3,1′-cyclopropane]-6-yl]-methanone hydrochloride]: the 50% inhibitory concentration (IC50) was < 0.1 µM.
Turning to `CCc1cccc(-c2cnc(N3CC4(CC4)c4ccc(C(=O)N(C)CCO)cc43)nc2)n1` [Compound 268, 1-[5-(6-Ethyl-pyridin-2-yl)-pyrimidin-2-yl]-N-(2-hydroxy-ethyl)-N-methyl-spiro[1,2-dihydro-indole-3,1′-cyclopropane]-6-carboxylic acid amide], the IC50 was < 0.1 µM.
For `CN(CCO)C(=O)c1ccc2c(c1)N(c1ncc(-c3cc(N)ccn3)cn1)CC21CC1` [Compound 251, 1-[5-(4-Amino-pyridin-2-yl)-pyrimidin-2-yl]-N-(2-hydroxy-ethyl)-N-methyl-spiro[1,2-dihydro-indole-3,1′-cyclopropane]-6-carboxylic acid amide] the value was < 0.1 µM.
